Data taken from US7906620B2, “Tumor associated antigen, peptides thereof, and use of same as anti-tumor vaccines” (Yeda Research and Development Co. Ltd., priority 2002, dated 2011).

Legend:
[1] = tested on: RMAS-HHD-B7.1 target cells; test: Immunogenicity in HHD mice after immunization with dendritic cells pulsed with peptide pools; assay type: in vivo; conditions: DCs pulsed with pools of 2-4 peptides; effector-to-target ratio 25:1
Method: FIGS. 13A and 13B are graphs showing immunogenicity of PAP- or STEAP-derived peptides in HHD mice. The mice were immunized i.v. one time with 1×10^6 peptide-loaded syngeneic dendritic cells (DCs). The DCs were loaded separately with individual peptides, washed and pooled before immunization. Spleens were removed on day 10, and splenocytes were re-stimulated in vitro by 100 μM PAP-derived (FIG. 13A) or STEAP-derived (FIG. 13B) peptides in OPTIMEM for 2 h at 37° C., 5% CO2, followed by restimulation of lymphocytes for 4 more days in RPMI-HEPES, as described. CTL assays were performed on day 5 with individual PAP-, STEAP-derived peptides loaded on RMAS-HHD-B7.1 as targets. Non-relevant HIV derived peptide-loaded RMAS-HHD-B7.1 cells were used as negative controls. The effector-to-target ratio of 25:1 is shown.
The immunogenicity of the peptides, namely their potential to induce T cell responses, was subsequently examined in an in vivo model. A strain of β2 microglobulin (β2m) HLA-A2.1 Monochain Transgenic, H-2D^b−/−Xβ2m^−/− double knockout mice (HHD mice) was used. Upon vaccination of these mice, a repertoire of human HLA-A2.1 restricted CTLs is produced. The lysis patterns of each of the individual peptides loaded on target cells were first evaluated following immunization with syngeneic dendritic cells pulsed with pools of 2-4 synthetic peptides derived from each examined protein.

T2 cells = test: In vitro priming of human CTL with prostate peptides, cytolytic assay on peptide pulsed T2 cells; assay type: cell-based; conditions: for existence of peripheral CTL precursors in healthy individuals: peripheral blood of healthy individuals; for activation of CTL precursors in PBMC derived from CaP patients and healthy donors: three healthy and two CaP individuals
Method: FIGS. 16A-16D are graphs showing in vitro priming of human CTLs. PBMC of leukopheresis samples were isolated and in vitro CTL primed with peptide pulsed autologous DC. PBMC were supplemented with IL-7 and two days later IL-2 was added and renewed every three days. Additional two cycles of re-stimulation were done every 7 days over peptide pulsed monocytes. Seven days after the last stimulation cytolytic assay was performed using peptide pulsed or non-pulsed T2 cells as target. In FIG. 16A, PBMC derived from CaP individual (donor A) were primed and re-stimulated with STEAP-3 pulsed DC/monocytes. Target cells: relevant (STEAP-3) and non-relevant peptide (HIV-derived, PAP-3) pulsed T2 cells. In FIG. 16B, PBMC derived from healthy individual (donor B) were primed and restimulated with PAP-3 pulsed DC/monocytes. Target cells: relevant (PAP-3) and non-relevant peptide (HIV-derived, STEAP-3) pulsed T2 cells. PBMC derived from healthy individual (donor C) were primed and restimulated with either PAP-3 (C-1; FIG. 16C) or STEAP-3 (C-2; FIG. 16D) pulsed DC/monocytes. Relevant (PAP-3 or STEAP-3) peptide pulsed and non-pulsed T2 cells were used as targets.
FIGS. 17A-17C are graphs showing peptide specific CTL induced in human PBMC by PAP-3 (FIG. 17A), STEAP-3 (FIG. 17B), and PSGR-1 (FIG. 17C). PBMC from a healthy donor were stimulated by peptide pulsed DC as described and CTL activity was tested on homologous peptide pulsed T2 target cells (HLA-A2 lymphoma, TAP deficient).
Finally, peripheral blood of two healthy (donors B, C) and one CaP (donor A) individuals were tested for the existence of CTL precursors (FIGS. 16A-16D). Leukopheresis products of the donors were obtained from Barzilai Medical Center (Ashkelon, Israel) according to Declaration of Helsinki Principles. PBMC were isolated by centrifugation on Ficoll-Plaque Plus gradients (Amersham, Sweden). In vitro priming of CTL was done over autologous DC that were prepared from monocytes by IL-4 and GM-CSF treatment and maturated with a IL-1β, IL-6, TNF-α and PGE2 cocktail. DC were pulsed with synthetic peptides and PBMC were supplemented with IL-7. Two days later, IL-2 was added and renewed every three days. Two additional re-stimulations were done every 7 days over peptide pulsed monocytes. Seven days after the third stimulation, lymphocytes were harvested and a cytolytic assay was performed using relevant/non-relevant peptide pulsed or non-pulsed at all T2 cells.
When human PBMC are stimulated in vitro by PAP-3 and STEAP-3 peptides, the resulting CTL can lyse target cells (T2, EL4/HHD) pulsed with PAP-3, STEAP-3 or PSGR-1 and PSGR-6 peptides. (FIGS. 15 and 16). Here, these findings were expanded and peripheral blood of three healthy and two CaP individuals was tested for the existence of CTL precursors against PAP-3, STEAP-3 and PSGR-1 peptides. Leukopheresis products of the donors were obtained from Barzilai Medical Center (Ashkelon, Israel) according to Declaration of Helsinki Principles. PBMC were isolated by centrifugation on Ficoll-Plaque Plus gradients (Amersham, Sweden). In vitro priming of CTL was done over autologous DC that were prepared from monocytes by IL-4 and GM-CSF treatment and matured with a IL-1β, IL-6, TNF-α and PGE2 cocktail. DC were pulsed with synthetic peptides and PBMC were supplemented with IL-7. Two days later, IL-2 was added and renewed every three days. Two additional re-stimulations were done every 7 days over peptide pulsed monocytes. Seven days after the third stimulation, lymphocytes were harvested and a cytolytic assay was performed using relevant/non-relevant peptide pulsed or non-pulsed T2 cells (FIGS. 17A-17C) and LNCaP (high and low HLA expressors) cells as targets (FIGS. 18A-18E). […] Monitoring of HLA-A2-peptide specific CD8+ cells for PAP-3 and STEAP-3 was also performed by MHC-peptide tetramers (tetramers of recombinant HLA-A2.1-beta2 microglobulin single chain with peptides were prepared in collaboration with Dr Yoram Reiter, Technion, Haifa). […]

Sequence | lysis of peptide-loaded RMAS-HHD-B7.1 target cells [1] | existence of peripheral CTL precursors in healthy individuals (T2 cells) | activation of CTL precursors in PBMC derived from CaP patients and healthy donors (T2 cells) | activation of CTL precursors in PBMC derived from CaP individual (T2 cells; donor A)
ILLWQPIPV (listed as Homo sapiens) [PAP-3, PAP start position 135] | significant lysis | 2 out of 2 | activated CTL precursors | 
LLLGTIHAL (listed as Homo sapiens) [STEAP-3, STEAP start position 262] | significant lysis | 1 out of 2 | activated CTL precursors | activated peripheral CTL precursors
